Common to all, as to type: functional
In test [1] the test system is Klebsiella pneumoniae. Briefly: Antimicrobial activity against carbapenemases KPC-producing Klebsiella pneumoniae VA-406 infected in sc dosed CD-1 mouse septicemia infection model at 2:1 compound to NXL104 beta-lactamase inhibitor ratio by acute lethal septicemia analysis. To be noted: VA-406, sc.
Test [2] has as its system Klebsiella pneumoniae. The test can be described thus: Antimicrobial activity against carbapenemases KPC-producing Klebsiella pneumoniae VA-406 infected in sc dosed CD-1 mouse septicemia infection model at 4:1 compound to NXL104 beta-lactamase inhibitor ratio by acute lethal septicemia analysis. The conditions noted are these: VA-406, sc.
For test [3], the system named is Klebsiella pneumoniae. The test can be described thus: Antimicrobial activity against carbapenemases KPC-producing Klebsiella pneumoniae VA-361 infected in sc dosed CD-1 mouse septicemia infection model at 8:1 compound to NXL104 beta-lactamase inhibitor ratio by acute lethal septicemia analysis. The conditions noted are these: VA-361, sc.
Test [4] concerns Klebsiella pneumoniae. Briefly: Antimicrobial activity against carbapenemases KPC-producing Klebsiella pneumoniae VA-406 infected in sc dosed CD-1 mouse septicemia infection model at 8:1 compound to NXL104 beta-lactamase inhibitor ratio by acute lethal septicemia analysis. To be noted: VA-406, sc.
Test [5] relates to Klebsiella pneumoniae. The test can be described thus: Antimicrobial activity against carbapenemases KPC-producing Klebsiella pneumoniae VA-406 infected in CD-1 mouse thigh infection model assessed as change in log10 CFU reduction per thigh treated 1.5 hr post infection at >=1024:256 mg/kg, sc compound to NXL104 beta-lactamase inhibitor ratio after 24 hrs by acute lethal septicemia analysis (reference value: 8.67 log10CFU/thigh).

Test [6] deals with Klebsiella pneumoniae. The test can be described thus: Antimicrobial activity against carbapenemases KPC-producing Klebsiella pneumoniae VA-361 infected in CD-1 mouse thigh infection model assessed as change in log10 CFU reduction per thigh treated 1.5 hr post infection at >=512:128 mg/kg, sc compound to NXL104 beta-lactamase inhibitor ratio after 24 hrs by acute lethal septicemia analysis (reference value: 8.93 log10CFU/thigh).

In test [7] the test system is Klebsiella pneumoniae. Briefly: Antimicrobial activity against carbapenemases KPC-producing Klebsiella pneumoniae VA-361 infected in CD-1 mouse thigh infection model assessed as change in log10 CFU reduction per thigh treated 1.5 hr post infection at >=64:16 mg/kg, sc compound to NXL104 beta-lactamase inhibitor ratio after 24 hrs by acute lethal septicemia analysis (reference value: 8.93 log10CFU/thigh).

For test [8], the system named is Klebsiella pneumoniae. The test can be described thus: Antimicrobial activity against carbapenemases KPC-producing Klebsiella pneumoniae VA-406 infected in CD-1 mouse thigh infection model assessed as change in log10 CFU reduction per thigh treated 1.5 hr post infection at >=64:16 mg/kg, sc compound to NXL104 beta-lactamase inhibitor ratio after 24 hrs by acute lethal septicemia analysis.

In test [9] the test system is Klebsiella pneumoniae. The test can be described thus: Antimicrobial activity against carbapenemases KPC-producing Klebsiella pneumoniae VA-361 infected in CD-1 mouse thigh infection model assessed as change in log10 CFU reduction per thigh treated 1.5 hr post infection at >=32:8 mg/kg, sc compound to NXL104 beta-lactamase inhibitor ratio after 24 hrs by acute lethal septicemia analysis (reference value: 8.93 log10CFU/thigh).

The structures appear in SMILES notation.

In general, ED50 refers to the midpoint of the dose-response relation.

Turning to `CC(C)(O/N=C(\C(=O)N[C@@H]1C(=O)N2C(C(=O)[O-])=C(C[n+]3ccccc3)CS[C@H]12)c1csc(N)n1)C(=O)O` [CEFTAZIDIME], the ED50 in test [1] is 3.5 mg/kg; in test [2], 3.8 mg/kg; in [3] it was 16.9 mg/kg; in test [4] it was 7.2 mg/kg. Also, the log10cfu is listed as -1.59 in test [5]; -1.47 in test [6]; 2.19 in [7]; 2.06 in test [8]; 2.32 in test [9].

(Values after ChEMBL document CHEMBL1687830, “Evaluation of ceftazidime and NXL104 in two murine models of infection due to KPC-producing Klebsiella pneumoniae” (2011).)
